Assay results as given in ChEMBL document CHEMBL1155810, “Synthesis, structure-activity relationships, and biological profiles of a quinazolinone class of histamine H3 receptor inverse agonists” (J Med Chem, 2008).
pIC50, pKi: −log10 of the molar value. The source made the active and inactive calls. The calls are words filed in the database; no cut-off is given here.

Key:
Histamine H3 receptor [1] = biological target: Histamine H3 receptor (Homo sapiens, UniProt Q9Y5N1); experiment: Inverse agonist activity at human histamine H3 receptor expressed in CHO-K1 cells assessed as inhibition of N-alpha-methylhistamine-induced [35S]GTPgammaS binding; format: functional, cell-based
Sequence of Histamine H3 receptor (Homo sapiens, UniProt Q9Y5N1) (Q9Y5N1 whole entry): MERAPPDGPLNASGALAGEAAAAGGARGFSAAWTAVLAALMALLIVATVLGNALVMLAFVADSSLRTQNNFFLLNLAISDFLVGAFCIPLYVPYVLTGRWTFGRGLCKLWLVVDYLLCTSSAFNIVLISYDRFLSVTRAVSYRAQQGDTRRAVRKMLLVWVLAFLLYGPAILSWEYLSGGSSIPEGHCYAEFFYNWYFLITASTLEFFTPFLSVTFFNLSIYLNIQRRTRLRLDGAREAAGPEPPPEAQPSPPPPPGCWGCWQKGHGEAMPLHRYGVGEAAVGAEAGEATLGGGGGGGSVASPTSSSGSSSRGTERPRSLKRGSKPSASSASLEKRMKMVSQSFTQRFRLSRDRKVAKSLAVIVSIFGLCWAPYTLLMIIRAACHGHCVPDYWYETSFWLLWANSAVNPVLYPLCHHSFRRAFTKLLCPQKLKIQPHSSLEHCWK

[2] = biological target: Voltage-gated inwardly rectifying potassium channel KCNH2 (Homo sapiens, UniProt Q12809)
Sequence of Voltage-gated inwardly rectifying potassium channel KCNH2 (Q12809 whole entry): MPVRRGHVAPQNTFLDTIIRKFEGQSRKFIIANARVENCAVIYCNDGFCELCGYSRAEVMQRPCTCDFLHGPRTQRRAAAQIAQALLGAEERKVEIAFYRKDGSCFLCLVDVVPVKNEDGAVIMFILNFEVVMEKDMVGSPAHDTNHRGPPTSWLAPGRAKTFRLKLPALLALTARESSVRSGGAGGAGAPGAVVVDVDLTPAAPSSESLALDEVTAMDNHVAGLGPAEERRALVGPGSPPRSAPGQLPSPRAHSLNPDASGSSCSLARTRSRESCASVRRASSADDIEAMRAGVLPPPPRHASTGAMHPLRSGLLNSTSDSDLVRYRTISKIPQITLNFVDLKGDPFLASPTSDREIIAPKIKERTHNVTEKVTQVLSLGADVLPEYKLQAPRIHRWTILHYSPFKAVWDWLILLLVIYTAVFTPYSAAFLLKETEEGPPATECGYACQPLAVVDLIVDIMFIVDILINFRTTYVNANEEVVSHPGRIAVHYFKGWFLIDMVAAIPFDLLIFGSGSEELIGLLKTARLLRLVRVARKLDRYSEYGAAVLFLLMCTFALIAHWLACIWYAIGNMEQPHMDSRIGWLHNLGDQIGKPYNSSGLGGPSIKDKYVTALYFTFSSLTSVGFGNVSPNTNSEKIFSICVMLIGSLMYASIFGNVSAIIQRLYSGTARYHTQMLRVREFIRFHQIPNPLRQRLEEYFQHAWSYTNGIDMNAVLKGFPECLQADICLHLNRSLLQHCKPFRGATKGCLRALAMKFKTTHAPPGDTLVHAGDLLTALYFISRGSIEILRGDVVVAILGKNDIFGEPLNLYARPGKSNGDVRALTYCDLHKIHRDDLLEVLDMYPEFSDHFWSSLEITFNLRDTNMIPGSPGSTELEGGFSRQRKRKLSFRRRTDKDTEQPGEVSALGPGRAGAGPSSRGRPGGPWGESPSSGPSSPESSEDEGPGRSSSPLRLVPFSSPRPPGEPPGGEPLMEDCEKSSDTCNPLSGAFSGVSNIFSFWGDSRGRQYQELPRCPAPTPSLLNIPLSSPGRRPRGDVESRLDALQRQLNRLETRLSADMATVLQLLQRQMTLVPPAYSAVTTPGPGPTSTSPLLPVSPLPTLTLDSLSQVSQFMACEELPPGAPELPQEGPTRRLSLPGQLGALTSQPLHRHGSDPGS

[3] = Cmax in Beagle dog at 3 mg/kg, po; format: ADME, organism-based, Canis lupus familiaris; parameters: dose 3 mg/kg, route oral; conditions: in vivo
[4] = Plasma clearance in Sprague-Dawley rat at 1 mg/kg, iv; format: ADME, organism-based; parameters: dose 1 mg/kg, route intravenous
[5] = Ratio of drug level in Sprague-Dawley rat brain to plasma; format: ADME; conditions: read-out: BPR
Mus musculus [6] = organism: Mus musculus; experiment: Ex vivo receptor occupancy of […] histamine H3 receptor in wild type MDR1a-proficient CF1 mouse plasma; format: functional
Rattus norvegicus [7] = experiment: Ex vivo increase in receptor occupancy of histamine H3 receptor in Sprague-Dawley rat brain at 30 mg/kg, po by autoradiography; format: functional
Cytochrome P450 2C9 = Cytochrome P450 2C9 (Homo sapiens, UniProt P11712); experiment: Inhibition of CYP2C9; format: ADME
Sequence of Cytochrome P450 2C9 (P11712 whole entry): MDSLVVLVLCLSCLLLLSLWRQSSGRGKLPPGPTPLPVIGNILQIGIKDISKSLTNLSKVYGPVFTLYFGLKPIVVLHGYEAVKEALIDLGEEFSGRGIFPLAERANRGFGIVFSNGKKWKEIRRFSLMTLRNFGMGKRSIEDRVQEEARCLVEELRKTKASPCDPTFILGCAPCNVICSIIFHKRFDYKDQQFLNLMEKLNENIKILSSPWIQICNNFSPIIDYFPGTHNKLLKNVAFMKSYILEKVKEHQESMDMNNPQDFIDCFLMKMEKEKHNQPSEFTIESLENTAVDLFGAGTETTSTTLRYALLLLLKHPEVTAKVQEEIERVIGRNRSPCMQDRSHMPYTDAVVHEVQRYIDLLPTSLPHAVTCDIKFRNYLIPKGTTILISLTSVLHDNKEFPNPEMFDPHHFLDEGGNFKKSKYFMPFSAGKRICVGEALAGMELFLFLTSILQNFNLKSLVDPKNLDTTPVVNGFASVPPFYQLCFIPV

Histamine H3 receptor [8] = biological target: Histamine H3 receptor (Rattus norvegicus, UniProt Q9QYN8); experiment: Displacement of [3H]N-alpha-methylhistamine from rat histamine H3 receptor expressed in HEK293 cells coexpressed with CRE-beta-lactamase; format: cell-based
Sequence of Histamine H3 receptor (Rattus norvegicus, UniProt Q9QYN8) (Q9QYN8 whole entry): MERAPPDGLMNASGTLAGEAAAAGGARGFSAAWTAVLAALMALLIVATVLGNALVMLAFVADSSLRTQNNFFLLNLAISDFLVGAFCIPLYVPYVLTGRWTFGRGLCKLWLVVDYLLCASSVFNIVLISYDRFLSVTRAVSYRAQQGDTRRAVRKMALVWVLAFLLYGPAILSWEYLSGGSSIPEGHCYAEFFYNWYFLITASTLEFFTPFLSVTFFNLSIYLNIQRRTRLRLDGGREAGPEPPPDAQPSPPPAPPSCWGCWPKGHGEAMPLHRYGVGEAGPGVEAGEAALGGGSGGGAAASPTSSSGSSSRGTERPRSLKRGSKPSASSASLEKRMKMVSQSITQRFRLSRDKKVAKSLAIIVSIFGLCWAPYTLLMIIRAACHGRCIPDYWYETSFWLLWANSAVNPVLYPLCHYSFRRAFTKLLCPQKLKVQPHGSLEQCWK

[9] = Oral bioavailability in Sprague-Dawley rat at 3 mg/kg; format: ADME, organism-based; conditions: in vivo
[10] = Oral bioavailability in rhesus monkey at 3 mg/kg; format: ADME, organism-based, Macaca mulatta; conditions: in vivo
[11] = Plasma concentration in Sprague-Dawley rat at 10 mg/kg, po after 2 hrs; format: ADME, organism-based; parameters: dose 10 mg/kg, route oral
[12] = Half life in rhesus monkey at 1 mg/kg, iv; format: ADME, organism-based, Macaca mulatta; parameters: dose 1 mg/kg, route intravenous; conditions: in vivo
[13] = Half life in Sprague-Dawley rat at 1 mg/kg, iv; format: ADME, organism-based; parameters: dose 1 mg/kg, route intravenous; conditions: in vivo
Cytochrome P450 2C19 = Cytochrome P450 2C19 (Homo sapiens, UniProt P33261); experiment: Inhibition of CYP2C19; format: ADME
Sequence of Cytochrome P450 2C19 (P33261 whole entry): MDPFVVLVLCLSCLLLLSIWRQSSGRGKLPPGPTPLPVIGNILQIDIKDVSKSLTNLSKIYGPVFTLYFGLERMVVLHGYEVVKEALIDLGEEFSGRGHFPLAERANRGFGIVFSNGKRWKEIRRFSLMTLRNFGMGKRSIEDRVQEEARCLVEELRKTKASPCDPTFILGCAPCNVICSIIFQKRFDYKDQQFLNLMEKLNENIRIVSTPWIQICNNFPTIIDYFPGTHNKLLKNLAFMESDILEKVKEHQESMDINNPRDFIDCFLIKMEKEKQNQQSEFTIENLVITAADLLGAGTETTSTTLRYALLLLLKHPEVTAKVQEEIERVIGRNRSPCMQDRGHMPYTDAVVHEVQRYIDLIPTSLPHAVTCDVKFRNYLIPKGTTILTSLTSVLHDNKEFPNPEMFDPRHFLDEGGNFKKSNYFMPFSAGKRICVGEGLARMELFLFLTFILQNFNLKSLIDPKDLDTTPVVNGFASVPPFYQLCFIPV

[14] = Oral bioavailability in Beagle dog at 3 mg/kg; format: ADME, organism-based, Canis lupus familiaris; conditions: in vivo
[15] = Volume of distribution at steady state in rhesus monkey at 1 mg/kg, iv; format: ADME, organism-based, Macaca mulatta; parameters: dose 1 mg/kg, route intravenous; conditions: in vivo, read-out: Vdss
[16] = Ratio of drug level in MDR1a-deficient CF1 mouse brain to plasma at 10 mg/kg, po after 2 hrs; format: ADME, organism-based; parameters: dose 10 mg/kg, route oral; conditions: read-out: BPR
[17] = Volume of distribution at steady state in Beagle dog at 1 mg/kg, iv; format: ADME, organism-based, Canis lupus familiaris; parameters: dose 1 mg/kg, route intravenous; conditions: in vivo, read-out: Vdss
Mus musculus [18] = organism: Mus musculus; experiment: Ex vivo receptor occupancy of […] histamine H3 receptor in MDR1a-deficient CF1 mouse brain; format: functional
[19] = Ratio of drug level in wild type MDR1a-proficient CF1 mouse brain to plasma at 10 mg/kg, po after 2 hrs; format: ADME, organism-based; parameters: dose 10 mg/kg, route oral; conditions: read-out: BPR
[20] = Plasma clearance in Beagle dog at 1 mg/kg, iv; format: ADME, organism-based, Canis lupus familiaris; parameters: dose 1 mg/kg, route intravenous
Rattus norvegicus [21] = experiment: Effect on histamine release in Sprague-Dawley rat brain assessed as increase in tele-methylhistamine level at 30 mg/kg, po after 2 hrs; format: functional, organism-based; parameters: dose 30 mg/kg
[22] = Cmax in Sprague-Dawley rat at 3 mg/kg, po; format: ADME, organism-based; parameters: dose 3 mg/kg, route oral; conditions: in vivo
Mus musculus [23] = organism: Mus musculus; experiment: Ex vivo receptor occupancy of […] histamine H3 receptor in MDR1a-deficient CF1 mouse plasma; format: functional
[24] = AUC (0 to infinity) in rhesus monkey at 3 mg/kg, po; format: ADME, organism-based, Macaca mulatta; parameters: time infinity, dose 3 mg/kg, route oral; conditions: plasma
Cytochrome P450 1A2 = biological target: T1, Cytochrome P450 1A2 (Homo sapiens, UniProt P05177); experiment: Inhibition of CYP1A2; format: ADME
T1 sequence (P05177 whole entry): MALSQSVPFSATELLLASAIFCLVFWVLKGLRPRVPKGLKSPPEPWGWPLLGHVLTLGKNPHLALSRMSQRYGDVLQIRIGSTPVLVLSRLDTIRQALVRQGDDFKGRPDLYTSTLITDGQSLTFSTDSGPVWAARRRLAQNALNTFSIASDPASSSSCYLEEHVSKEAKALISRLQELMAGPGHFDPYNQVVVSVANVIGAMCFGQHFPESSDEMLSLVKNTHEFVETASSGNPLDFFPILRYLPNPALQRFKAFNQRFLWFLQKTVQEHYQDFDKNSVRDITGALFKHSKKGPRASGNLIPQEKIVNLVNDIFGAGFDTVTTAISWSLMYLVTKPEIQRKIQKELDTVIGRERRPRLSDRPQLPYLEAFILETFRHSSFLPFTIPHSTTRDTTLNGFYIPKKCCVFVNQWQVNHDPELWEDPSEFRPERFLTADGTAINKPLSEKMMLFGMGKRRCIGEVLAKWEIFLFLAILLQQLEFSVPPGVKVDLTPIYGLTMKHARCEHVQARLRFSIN

[25] = Volume of distribution at steady state in Sprague-Dawley rat at 1 mg/kg, iv; format: ADME, organism-based; parameters: dose 1 mg/kg, route intravenous; conditions: in vivo, read-out: Vdss
Cytochrome P450 2D6 = Cytochrome P450 2D6 (Homo sapiens, UniProt P10635); experiment: Inhibition of CYP2D6; format: ADME
Sequence of Cytochrome P450 2D6 (P10635 whole entry): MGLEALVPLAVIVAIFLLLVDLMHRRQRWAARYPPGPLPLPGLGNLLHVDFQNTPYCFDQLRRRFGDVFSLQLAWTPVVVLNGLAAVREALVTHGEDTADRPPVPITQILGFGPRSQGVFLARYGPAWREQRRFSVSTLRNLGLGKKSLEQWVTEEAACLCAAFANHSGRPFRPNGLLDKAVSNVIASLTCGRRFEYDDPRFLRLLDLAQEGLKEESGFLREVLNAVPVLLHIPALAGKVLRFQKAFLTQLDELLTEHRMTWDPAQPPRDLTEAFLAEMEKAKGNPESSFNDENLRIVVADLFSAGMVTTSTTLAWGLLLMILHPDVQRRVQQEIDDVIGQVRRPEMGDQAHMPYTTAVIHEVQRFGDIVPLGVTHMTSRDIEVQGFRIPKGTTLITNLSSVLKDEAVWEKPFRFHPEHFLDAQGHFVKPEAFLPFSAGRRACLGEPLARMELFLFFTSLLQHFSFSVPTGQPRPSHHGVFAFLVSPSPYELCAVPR

Brain = experiment: Drug level in Sprague-Dawley rat brain at 10 mg/kg, po after 2 hrs; format: ADME, organism-based; parameters: dose 10 mg/kg, route oral; conditions: in vivo
[26] = AUC (0 to infinity) in Beagle dog at 3 mg/kg, po; format: ADME, organism-based, Canis lupus familiaris; parameters: time infinity, dose 3 mg/kg, route oral; conditions: plasma
Histamine H1 receptor = Histamine H1 receptor (Homo sapiens, UniProt P35367); experiment: Inhibition of human histamine H1 receptor
Sequence of Histamine H1 receptor (P35367 whole entry): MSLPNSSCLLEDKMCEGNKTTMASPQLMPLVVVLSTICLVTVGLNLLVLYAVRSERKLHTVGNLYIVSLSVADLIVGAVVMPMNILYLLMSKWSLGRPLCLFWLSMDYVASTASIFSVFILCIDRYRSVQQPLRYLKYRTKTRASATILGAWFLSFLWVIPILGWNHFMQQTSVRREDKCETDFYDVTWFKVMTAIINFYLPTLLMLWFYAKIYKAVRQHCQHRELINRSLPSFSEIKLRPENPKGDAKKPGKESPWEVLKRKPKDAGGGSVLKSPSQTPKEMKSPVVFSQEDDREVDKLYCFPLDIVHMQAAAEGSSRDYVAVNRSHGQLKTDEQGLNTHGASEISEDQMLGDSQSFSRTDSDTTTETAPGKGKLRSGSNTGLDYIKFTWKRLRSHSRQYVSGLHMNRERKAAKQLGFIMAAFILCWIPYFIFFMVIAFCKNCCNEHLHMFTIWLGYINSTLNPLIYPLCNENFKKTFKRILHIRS

[27] = Plasma clearance in rhesus monkey at 1 mg/kg, iv; format: ADME, organism-based, Macaca mulatta; parameters: dose 1 mg/kg, route intravenous
Histamine H4 receptor = Histamine H4 receptor (Homo sapiens, UniProt Q9H3N8); experiment: Inhibition of human histamine H4 receptor
Sequence of Histamine H4 receptor (Q9H3N8 whole entry): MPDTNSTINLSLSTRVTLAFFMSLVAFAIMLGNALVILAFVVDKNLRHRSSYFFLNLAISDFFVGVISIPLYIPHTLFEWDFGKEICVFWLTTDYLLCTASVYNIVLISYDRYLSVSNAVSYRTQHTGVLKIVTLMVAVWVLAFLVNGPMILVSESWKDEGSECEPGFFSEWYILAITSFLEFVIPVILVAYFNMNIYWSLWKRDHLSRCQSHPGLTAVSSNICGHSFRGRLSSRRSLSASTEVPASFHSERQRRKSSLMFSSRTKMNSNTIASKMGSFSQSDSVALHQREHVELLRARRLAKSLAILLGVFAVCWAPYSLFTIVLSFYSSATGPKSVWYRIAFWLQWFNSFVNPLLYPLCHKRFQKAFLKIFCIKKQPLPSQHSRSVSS

[28] = Half life in Beagle dog at 1 mg/kg, iv; format: ADME, organism-based, Canis lupus familiaris; parameters: dose 1 mg/kg, route intravenous; conditions: in vivo
[29] = AUC (0 to infinity) in Sprague-Dawley rat at 3 mg/kg, po; format: ADME, organism-based; parameters: time infinity, dose 3 mg/kg, route oral; conditions: plasma
Histamine H2 receptor = Histamine H2 receptor (Homo sapiens, UniProt P25021); experiment: Inhibition of human histamine H2 receptor
Sequence of Histamine H2 receptor (P25021 whole entry): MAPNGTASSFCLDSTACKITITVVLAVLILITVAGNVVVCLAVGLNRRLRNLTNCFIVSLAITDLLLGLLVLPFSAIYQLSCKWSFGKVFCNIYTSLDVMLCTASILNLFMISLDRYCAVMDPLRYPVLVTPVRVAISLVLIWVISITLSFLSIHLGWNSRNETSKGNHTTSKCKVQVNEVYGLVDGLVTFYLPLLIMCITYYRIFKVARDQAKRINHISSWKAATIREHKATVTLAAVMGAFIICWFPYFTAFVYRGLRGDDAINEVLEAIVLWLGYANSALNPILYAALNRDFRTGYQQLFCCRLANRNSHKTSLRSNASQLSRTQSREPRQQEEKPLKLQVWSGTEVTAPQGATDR

Cytochrome P450 3A4 = Cytochrome P450 3A4 (Homo sapiens, UniProt P08684); experiment: Inhibition of CYP3A4; format: ADME
[30] = Cmax in rhesus monkey at 3 mg/kg, po; format: ADME, organism-based, Macaca mulatta; parameters: dose 3 mg/kg, route oral; conditions: in vivo
Mus musculus [31] = organism: Mus musculus; experiment: Ex vivo receptor occupancy of […] histamine H3 receptor in wild type MDR1a-proficient CF1 mouse brain; format: functional
Histamine receptor H3 = Histamine receptor H3 (Macaca mulatta, UniProt Q865E1); experiment: Displacement of [3H]N-alpha-methylhistamine from rhesus monkey histamine H3 receptor expressed in HEK293T cells; format: cell-based, HEK-293T
Sequence of Histamine receptor H3 (Q865E1 whole entry): as the sequence (Q9Y5N1 whole entry) above, with D148N, A240G, V282A, A289T, T290A, V300A, H442Q counted along it

Cytochrome P450 2A6 = biological target: T2, Cytochrome P450 2A6 (Homo sapiens, UniProt P11509); experiment: Inhibition of CYP2A6; format: ADME
T2 sequence (P11509 whole entry): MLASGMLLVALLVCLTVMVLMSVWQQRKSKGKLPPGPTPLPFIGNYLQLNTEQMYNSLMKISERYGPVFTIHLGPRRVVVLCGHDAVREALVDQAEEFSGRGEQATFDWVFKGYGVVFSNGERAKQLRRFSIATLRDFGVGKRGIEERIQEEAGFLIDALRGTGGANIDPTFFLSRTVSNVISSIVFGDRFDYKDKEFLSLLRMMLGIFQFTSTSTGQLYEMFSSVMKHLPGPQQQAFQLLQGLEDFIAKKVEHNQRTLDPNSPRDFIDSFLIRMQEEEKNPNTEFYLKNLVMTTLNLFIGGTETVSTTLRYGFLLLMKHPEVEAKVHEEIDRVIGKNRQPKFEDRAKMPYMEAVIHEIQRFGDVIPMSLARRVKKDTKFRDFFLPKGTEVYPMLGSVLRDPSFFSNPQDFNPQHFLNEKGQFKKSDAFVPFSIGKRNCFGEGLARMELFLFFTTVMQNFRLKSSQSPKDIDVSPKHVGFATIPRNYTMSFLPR

SMILES: Cc1nc2ccccc2c(=O)n1-c1ccc(OCCCN2[C@H](C)CC[C@H]2C)cc1
- pIC50 (Histamine H3 receptor [1]): 7.70

SMILES: Cc1nc2ccccc2c(=O)n1-c1ccc(OCCCN2CC(C)CC(C)C2)cc1 (configuration not stated)
- pIC50 (Histamine H3 receptor [1]): 7.55

SMILES: Cc1nc2ccccc2c(=O)n1-c1ccc(OCCCN2CCCCCC2)cc1
- pIC50 (Histamine H3 receptor [1]): 8.80

SMILES: Cc1nc2ccccc2c(=O)n1-c1ccc(OCCCN2CCC[C@@H]2C)cc1
- pIC50 (Histamine H3 receptor [1]): 8.66
- pIC50 [2]: 5.22

SMILES: Cc1nc2ccccc2c(=O)n1-c1ccc(OCCCN2CCC[C@H]2C)cc1
- pIC50 (Histamine H3 receptor [1]): 8.37
- pIC50 [2]: < 5.00

SMILES: Cc1nc2ccccc2c(=O)n1-c1ccc(OCCCN2CCC(C)CC2)cc1
- pIC50 (Histamine H3 receptor [1]): 7.64

SMILES: Cc1nc2ccccc2c(=O)n1-c1ccc(OCCCN2CCC[C@H](C)C2)cc1
- pIC50 (Histamine H3 receptor [1]): 9.14
- pIC50 [2]: 5.28

SMILES: Cc1nc2ccccc2c(=O)n1-c1ccc(OCCCN2CCCCCCC2)cc1
- pIC50 (Histamine H3 receptor [1]): 8.00

SMILES: Cc1nc2ccccc2c(=O)n1-c1ccc(OCCCN2CCCCC2C)cc1 (configuration not stated)
- pIC50 (Histamine H3 receptor [1]): 7.96

SMILES: Cc1nc2ccccc2c(=O)n1-c1ccc(OCCCN2CCCCC2)cc1
- pIC50 (Histamine H3 receptor [1]): 8.51

SMILES: Cc1nc2ccccc2c(=O)n1-c1ccc(OCCCN2CCC(C)C2)cc1 (configuration not stated)
- pIC50 (Histamine H3 receptor [1]): 8.24
- pIC50 [2]: 5.19

SMILES: Cc1nc2ccccc2c(=O)n1-c1ccc(OCCCN2CCC[C@@H](C)C2)cc1
- pIC50 (Histamine H3 receptor [1]): 7.39

SMILES: CCN(CC)CCCOc1ccc(-n2c(C)nc3ccccc3c2=O)cc1
- pIC50 (Histamine H3 receptor [1]): 7.48

SMILES: Cc1nc2cccc(C(F)(F)F)c2c(=O)n1-c1ccc(OCCCN2CCCC2)cc1 [MK-0249]
- Cmax [3]: 1800 nM
- clearance [4]: 12 mL/min/kg
- Kp [5]: 1.1
- Occ90 (Mus musculus [6]): 1.17 µM
- Activity (Rattus norvegicus [7]): >90%
- pIC50 (Cytochrome P450 2C9): < 4.68
- pKi (Histamine H3 receptor [8]): 7.48
- bioavailability [9]: 65%
- bioavailability [10]: 28%
- concentration at 2 h [11]: 1580 nM
- half-life [12]: 5.4 h
- half-life [13]: 5.5 h
- pIC50 (Cytochrome P450 2C19): < 4.57
- bioavailability [14]: > 100%
- Vd [15]: 6 L/kg
- Kp at 2 h [16]: 14
- Vd [17]: 9.7 L/kg
- Occ90 (Mus musculus [18]): 2 nmol/g
- Kp at 2 h [19]: 0.8
- clearance [20]: 19 mL/min/kg
- Activity (Rattus norvegicus [21]): Active
- Cmax [22]: 1010 nM
- Occ90 (Mus musculus [23]): 40 nM
- AUC(0-inf) [24]: 1.84 µM·h
- pIC50 (Cytochrome P450 1A2): < 4.57
- Vd [25]: 4.4 L/kg
- pIC50 (Cytochrome P450 2D6): < 4.57
- Drug uptake (Brain): 1.67 nmol/g
- AUC(0-inf) [26]: 11.8 µM·h
- pIC50 (Histamine H1 receptor): < 5.00
- clearance [27]: 18 mL/min/kg
- pIC50 (Histamine H4 receptor): < 5.00
- half-life [28]: 9.9 h
- AUC(0-inf) [29]: 6.35 µM·h
- pIC50 (Histamine H2 receptor): < 5.00
- pIC50 (Cytochrome P450 3A4): < 4.57
- Cmax [30]: 440 nM
- Occ90 (Mus musculus [31]): 2 nmol/g
- pKi (Histamine receptor H3): 8.37
- pIC50 (Cytochrome P450 2A6): < 4.57
